# Biological target: T1, Nurr1 LBD homodimer (Homo sapiens, UniProt P43354)
# T1 construct: a plasmid construct encoding Nurr1 (aa 364-598) in a pMal vector system; sGFP-Nurr1 LBD protein and sGFP-RXRα LBD[26] were titrated against a fixed concentration of Tb-SA conjugated Nurr1 LBD protein; MBP (cleaved yes); made in house; host or cells: E.coli BL21-R3-pRARE2 (biotinylated Nurr1 LBD)
# Test: HTRF Nurr1 homodimer formation assay
# Assay type: biochemical
# T1 sequence (P43354 364-598 limits assumed): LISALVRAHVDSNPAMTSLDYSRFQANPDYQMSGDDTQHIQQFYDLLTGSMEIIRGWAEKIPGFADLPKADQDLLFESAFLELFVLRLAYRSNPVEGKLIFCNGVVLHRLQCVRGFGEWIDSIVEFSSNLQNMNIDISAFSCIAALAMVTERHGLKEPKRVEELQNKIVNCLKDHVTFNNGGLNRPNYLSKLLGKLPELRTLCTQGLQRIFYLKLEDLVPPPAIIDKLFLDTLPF
structure (smiles),measurement,value
"O=C(O)C1=C(C(=O)Nc2ccc(-c3ccccc3OCc3ccccc3)cc2F)CCC1 [compound 1, 2-{[2’-(Benzyloxy)-3-fluoro-[1,1’-biphenyl]-4-yl]carbamoyl}cyclopent-1-ene-1-carboxylic acid]",effect on Nurr1 homodimerization,markedly disrupted

# — PMC12095788 (Communications Chemistry, 2025)
